Results as given in article PMC10373114, “CDK2 regulates collapsed replication fork repair in CCNE1-amplified ovarian cancer cells via homologous recombination” (NAR Cancer, 2023).
pIC50: −log10 of the molar value.

Columns and labels:
[1] = system: CtIP bandshift and pRPA S4/8; test: Western blot of HR signaling after etoposide; assay type: cell-based; settings: 1 μM RO-3306 or 10 μM roscovitine, 24 h before 50 μM etoposide 2 h
Experimental: Cells were lysed in PhosphoSafe Lysis Buffer (EDM millipore, Cat#71296) and protein was quantified using the Pierce BCA Gold Kit (Thermo Fisher Scientific Cat#A53227). Lysate and lysis buffer were combined with 4× Loading Dye (Bio-Rad, Cat#1610747) and 2ME (Bio-Rad, Cat#1610710). Samples were loaded into Bio-Rad 4–20% Tris-glycine, 18-well SDS-PAGE (Cat#5671094). Transfer was performed using Bio-Rad dry transfer system (Trans-Blot Turbo) (Nitrocellulose membrane, 0.2 μM). Blocking was performed using LI-COR Odyssey Blocking Buffer (Cat#927–70001). Primary antibodies (CDK2 1:500, p16 1:1000, CCNE1 1:500, pRbT821 1:500, Actin R 1:2000, p21 1:1000, CCNA2 1:500, pRb S807/811 1:1000, pRb S780 1:500, CtIP 1:1000, Actin M 1:5000, pH2A.X Ser139 1:1000, pCDK2 T160 1:1000, pRPA S4/8 1:1000, CDK1 1:1000, pCDK1 Y15 1:1000, pChk1 S317 1:500, Total Chk1 1:1000, Tubulin 1:10 000) were combined with Odyssey Blocking Buffer and 0.1% Tween-20, and incubated at 4°C, rotating. Secondary antibodies were combined with Odyssey Blocking Buffer and 0.1% Tween-20 and incubated at room temperature, rotating. All secondary antibodies were diluted to 1:10 000 (LI-COR Cat#926–33212, Cat#926-33213, Cat#926-68070, Cat#926–68071, Cat#926–68076). Signals were detected using LI-COR Odyssey CLx Imaging Studio.

[2] = system: OVCAR-3 cells; test: CyQuant proliferation assay; assay type: cell-based, human; settings: 5 days
Experimental: (§1) OVCAR-3, COV644, or MCF-7 cells were seeded at 1000 cells/well in 384-well black, clear bottom plates and allowed to adhere overnight at 37°C/5% CO2. The following day, cells were treated with compound in a 10-point dose response, 1:4 dilutions. After 5 days of incubation, CyQuant Direct Proliferation Assay was performed according to the manufacturer's instructions. Data were processed with GraphPad Prism using a four-parameter fit to calculate IC50.

[3] = system: homologous recombination (3X-FLAG ACTB reporter); test: CRISPR/Cas9 recombination assay; assay type: cell-based, human; settings: 25 or 250 nM BLU1851, 10 μM roscovitine; 72 h
Experimental: pBluescript SK II + and LentiCRISPR v2 plasmids were purchased from Genscript. LentiCRISPR v2 plasmids expressing single guide (sgRNA) against ACTB or scrambled sgRNA were constructed according to the depositor's instructions. To construct HR donor vectors against ACTB, sequences from −1554 to +1527 relative to the stop codon of ACTB plus 3× FLAG directly 5’ from the stop codon were synthesized and cloned into pBluescript SK II using restriction digest and ligation. Compounds were added to cells on the day of plasmid transfection. sgRNA/Cas9 and the donor plasmid were prepared in a 1:2 molar ratio; 1 μg of total DNA/well was transfected onto cells using Lipofectamine 2000 (Thermo Fisher Scientific Cat#11668019). Cells were harvested for Western Blot analysis 72 h later.

[4] = system: kinases tested (n = 468); test: KINOMEscan kinome selectivity; assay type: binding; settings: fraction of kinases with <10% of control at 3 μM among 468 kinases tested
[5] = system: MCF-7 cells; test: CyQuant proliferation assay; assay type: cell-based; settings: Homo sapiens, MCF7, 120 h, read-out: MCF-7 IC50
Experimental: as §1

[6] = system: OVCAR-3 cells; test: Proliferative recovery after HU-induced replication fork collapse (IncuCyte confluence); assay type: cell-based, human; settings: 500 nM, HU 2 mM 24 h pulse
Experimental: Figure S2. Replication fork stall signaling is dependent on CDK2, HR in CCNE1 - […]
(A) Cyclin E1 protein expression is strongly associated with CCNE1 copy number […]
amplification among TCGA patients with ovarian cancer (n=304) (Welch Two Sample t- […]
test, P = 2.3E-13). (B) Chemical structures of BLU1851. (C) Kinome tree for BLU1851 […]
at 3 µM (S-Score = 0.050). (D) Dose-response curves for BLU1851 enzyme inhibition […]
for indicated CDK family members. Error bars represent SD of at least duplicate independent experiments. (E) NanoBRET assessment of BLU1851 target engagement […]
in indicated CDK complexes expressed in HEK-293 cells. Error bars represent SD of at […]
least duplicate independent experiments. (F) Dose-response curve for pRb T821/826 […]
inhibition by BLU1851 in OVCAR-3 cells. Error bars represent SD of at least duplicate independent experiments. (G) Dose-response curve for pLamin S22 inhibition by BLU1851 in OVCAR-3 and COV644 cells. Error bars represent SD of duplicate independent experiments. (H) Dose-response curves in MCF-7, OVCAR-3 cells. […] (I) Quantification of pCHK1 S317 normalized to […]
allowed to recover in the presence of rabusertib. Confluence was calculated using […]
confluency at experimental endpoint. Confluence was measured by IncuCyte live cell […]
imaging and values were determined using an algorithm to detect cells from phase- […]

[7] = system: COV644 cells; test: CyQuant proliferation assay; assay type: cell-based, human; settings: 5 days
Experimental: as §1

O=C1NC(=NCc2cccs2)S/C1=C\c1ccc2ncccc2c1 [RO-3306]
HR signaling across cell lines tested [1]: only a small effect in some cell lines

N=C1NC(=O)/C(=C/c2ccc(O)cc2)S1 [mirin]
sensitivity of OVCAR-3 cells compared with COV644 cells (proliferative IC50) [2]: more sensitive

CC[C@H](CO)Nc1nc(NCc2ccccc2)c2ncn(C(C)C)c2n1 [roscovitine]
HR signaling across cell lines tested [1]: suppressed HR signaling in most cell lines tested | recombination (3X-FLAG product) [3]: inhibited recombination in all cell lines

CC(=O)c1c(C)c2cnc(Nc3ccc(N4CCNCC4)cn3)nc2n(C2CCCC2)c1=O [Palbociclib, reference compound]
Kinome S (10) [4]: 0.041 | pIC50 [5]: 6.82

Cc1cnc(NC(=O)Nc2cc(Br)c(C)cc2OC[C@@H]2CNCCO2)cn1 [rabusertib]
proliferation following HU treatment [6]: suppressed the ability of OVCAR-3 cells to proliferate following HU treatment

CC(C)CC(=O)c1c(Nc2ccc(Cl)cc2Cl)[nH]c2c(Cl)ccc([N+](=O)[O-])c2c1=O [JH-RE-06]
sensitivity of COV644 cells compared with OVCAR-3 cells (proliferative IC50) [7]: more sensitive

COC1=C(N)C(=O)c2nc(-c3nc(C(=O)O)c(C)c(-c4ccc(OC)c(OC)c4O)c3N)ccc2C1=O [streptonigrin]
sensitivity of OVCAR-3 cells compared with COV644 cells (proliferative IC50) [2]: more sensitive
